According to paper PMC10539439 (Pharmacological Reports, 2023):
Several values for one entry are separate records, joined by “and”; a condition that tells them apart may be missing. Identical values can stand only once.

Columns and labels:
TAAR1 = target: T1, TAAR1 (Homo sapiens, UniProt Q96RJ0); assay: Intrinsic activity, Hit Hunter cAMP assay; format: cell-based
T1 sequence (Q96RJ0 1-339): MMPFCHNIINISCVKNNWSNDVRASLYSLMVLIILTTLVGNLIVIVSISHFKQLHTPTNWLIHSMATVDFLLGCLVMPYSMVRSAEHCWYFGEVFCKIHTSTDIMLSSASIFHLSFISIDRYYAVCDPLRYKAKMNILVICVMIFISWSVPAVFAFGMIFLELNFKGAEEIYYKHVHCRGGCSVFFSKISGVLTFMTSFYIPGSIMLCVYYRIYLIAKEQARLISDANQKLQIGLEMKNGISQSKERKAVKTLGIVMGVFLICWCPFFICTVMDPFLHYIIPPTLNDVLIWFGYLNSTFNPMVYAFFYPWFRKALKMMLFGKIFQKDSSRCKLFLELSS
Experimental: The intrinsic activity study at cells with overexpression of TAAR1 (Eurofins, cat. No. 95-0173C2) was carried out at Eurofins Discoveries (Fremont, USA) using the Hit Hunter cAMP method. This assay monitors the activation of a GPCR via Gi and Gs secondary messenger signaling in a homogenous, non-imaging assay format using a technology developed by DiscoverX called Enzyme Fragment Complementation (EFC) with β-galactosidase (β-Gal) as the functional reporter. The enzyme is split into two complementary portions: EA for Enzyme Acceptor and ED for Enzyme Donor. ED is fused to cAMP and in the assay competes with cAMP generated by cells for binding to a cAMP-specific antibody. Active β-Gal is formed by complementation of exogenous EA to any unbound EDcAMP.
cAMP Hunter cell lines were expanded from freezer stocks according to standard procedures. Cells were seeded in a total volume of 20 µL into white-walled, 384-well microplates and incubated at 37 ℃ for the appropriate time prior to testing. For agonist determination, cells were incubated with a sample to induce a response. Media was aspirated from cells and replaced with 15 µL 2:1 HBSS/10 mM Hepes:cAMP XS + Ab reagent. Intermediate dilution of sample stocks was performed to generate 4X samples in assay buffer. 5 µL of 4 × sample was added to cells and incubated at 37 ℃ or room temperature for 30 or 60 min. Vehicle concentration was 1%. […] Microplates were read following signal generation with a PerkinElmer Envision instrument for chemiluminescent signal detection.

[1] = Food intake of rats fed a high-fat diet; format: in vivo, rat; conditions: for food intake: high-fat diet, groups (cages) 1-3
Experimental: Male Wistar rats were housed in pairs and fed a high-fat diet consisting of a 40% fat blend (Labofeed B with 40% lard, Morawski, Manufacturer Feed, Poland) for 14 weeks, with water available ad libitum. Control rats were fed a standard diet (Labofeed B, Morawski Manufacturer Feed, Poland). After 10 weeks, rats with obesity-induced via their diet were randomly divided into three equal groups that had the same mean body weight and were treated ip with test compounds at doses of 2 or 5 mg/kg b.w./day (high-fat diet + 4OHGuanabenz) or control group: vehicle–water 0.3 ml/kg (high-fat diet + vehicle = obesity control group) once a day in the morning between 9:00 AM and 10:00 AM for 25 days. Control rats were maintained on a standard diet, with ip administration of vehicle – water (standard diet + vehicle = control group).
The high-fat diet contained 550 kcal and the standard diet 280 kcal per 100 g.
Food intake was measured three times a week, immediately before drug administration. In this target, food was provided to the animals in a certain amount (100 g/cage). The weight of food was measured using dedicated scale (WPT 1C, RADWAG Wagi Elektroniczne, Poland). Next, the total amount of food that the animals had not eaten during that period of time was collected from each cage and weighed, and then, the data were recorded. The next portion of food was subsequently weighed before serving, and so on.

[2] = 5 mg/kg b.w., i.p.; cited from earlier work

Row | SMILES | Intrinsic activity at TAAR1 (in words) (TAAR1) | EC50 (TAAR1; agonist, tested up to 10^–4 M, response at 10^–2 and 10^–1 M assumed 90–100% of tyramine, read-out: EC50 calculated after computer simulation) [µM] | Average Value (raw signal) (TAAR1; cAMP, Agonist, Conc(M) 1e-6) | Value 1 / Value 2 (raw signal) (TAAR1; cAMP, Agonist, Conc(M) 1e-6) | Average Value (raw signal) (TAAR1; cAMP, Agonist, Conc(M) 1e-5) | Value 1 / Value 2 (raw signal) (TAAR1; cAMP, Agonist, Conc(M) 1e-5) | Average Value (raw signal) (TAAR1; cAMP, Agonist, Conc(M) 0.0001) | Value 1 / Value 2 (raw signal) (TAAR1; cAMP, Agonist, Conc(M) 0.0001) | % Efficacy (of the full agonist tyramine) (TAAR1; cAMP, Agonist, Conc(M) 0.0001 (10^–4 M)) [%] | Emax at 100 µM (TAAR1; cAMP, Agonist, Conc(M) 0.0001 (10^–4 M), read-out: % Efficacy (of the full agonist tyramine)) [%] | Intrinsic activity at TAAR1 (TAAR1; summary table) | effect on calories consumed (in words) ([1]; high-fat diet rats, ip at both doses (2 or 5 mg/kg b.w.), vs obesity control group) | food intake ([1]; 2mg/kg, week 1, 2 mg/kg) | food intake ([1]; 2mg/kg, week 2, 2 mg/kg) | food intake ([1]; 2mg/kg, week 3, 2 mg/kg) | food intake ([1]; 5mg/kg, week 1, 5 mg/kg) | food intake ([1]; 5mg/kg, week 2, 5 mg/kg) | food intake ([1]; 5mg/kg, week 3, 5 mg/kg) | Body weight of obese animals [2]
1 | Cl.N=C(N)NN=Cc1c(Cl)cc(O)cc1Cl [4-OH-Guanabenz, 2-[(2,6-Dichloro-4-hydroxyphenyl)methylene]hydrazinecarboximidamide Hydrochloride] | weak agonistic activity | 331 | 980.00 | 960 and 1000 | 1140.00 | 1080 and 1200 | 2200.00 | 2200 | 23.1 | 23 | + | reduced the number of calories consumed | 995.5 kcal/2rats and 924 kcal/2rats and 960 kcal/2rats | 891 kcal/2rats and 654.5 kcal/2rats and 772.5 kcal/2rats | 880 kcal/2rats and 863.5 kcal/2rats and 871.5 kcal/2rats | 363 kcal/2rats and 478.5 kcal/2rats and 346.5 kcal/2rats | 561 kcal/2rats and 621.5 kcal/2rats and 693 kcal/2rats | 599.5 kcal/2rats and 594 kcal/2rats and 665.5 kcal/2rats | 
2 | N=C(N)N/N=C/c1c(Cl)cccc1Cl [Guanabenz] |  |  |  |  |  |  |  |  |  |  |  |  |  |  |  |  |  |  | ↓ [17]
